According to patent publication US20250282794A1 (CURADEV PHARMA LTD, priority 2022, published 2025):

Molecular target: recombinant full length HPK-1 enzyme (Homo sapiens (Human), UniProt Q92918)
Test: HPK-1 biochemical enzyme assay (ADP-Glo kinase inhibition)
Conditions: recombinant full length HPK-1 6.8 nM, 10 μM ATP, 12.5 μM MBP, 30 mins at 25° C.
In short: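 Recombinant full-length human HPK-1 (6.8 nM) incubated 30 min at 25° C. with 10 μM ATP and 12.5 μM swine MBP in 40 mM Tris pH 7.4, 20 mM MgCl2, 50 μM DTT, 0.1 mg/mL BSA. ADP measured by ADP-Glo; IC50 from 10 concentrations, normalized to no-enzyme and vehicle controls.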

Sequence of recombinant full length HPK-1 enzyme (Q92918 whole entry, species assumed): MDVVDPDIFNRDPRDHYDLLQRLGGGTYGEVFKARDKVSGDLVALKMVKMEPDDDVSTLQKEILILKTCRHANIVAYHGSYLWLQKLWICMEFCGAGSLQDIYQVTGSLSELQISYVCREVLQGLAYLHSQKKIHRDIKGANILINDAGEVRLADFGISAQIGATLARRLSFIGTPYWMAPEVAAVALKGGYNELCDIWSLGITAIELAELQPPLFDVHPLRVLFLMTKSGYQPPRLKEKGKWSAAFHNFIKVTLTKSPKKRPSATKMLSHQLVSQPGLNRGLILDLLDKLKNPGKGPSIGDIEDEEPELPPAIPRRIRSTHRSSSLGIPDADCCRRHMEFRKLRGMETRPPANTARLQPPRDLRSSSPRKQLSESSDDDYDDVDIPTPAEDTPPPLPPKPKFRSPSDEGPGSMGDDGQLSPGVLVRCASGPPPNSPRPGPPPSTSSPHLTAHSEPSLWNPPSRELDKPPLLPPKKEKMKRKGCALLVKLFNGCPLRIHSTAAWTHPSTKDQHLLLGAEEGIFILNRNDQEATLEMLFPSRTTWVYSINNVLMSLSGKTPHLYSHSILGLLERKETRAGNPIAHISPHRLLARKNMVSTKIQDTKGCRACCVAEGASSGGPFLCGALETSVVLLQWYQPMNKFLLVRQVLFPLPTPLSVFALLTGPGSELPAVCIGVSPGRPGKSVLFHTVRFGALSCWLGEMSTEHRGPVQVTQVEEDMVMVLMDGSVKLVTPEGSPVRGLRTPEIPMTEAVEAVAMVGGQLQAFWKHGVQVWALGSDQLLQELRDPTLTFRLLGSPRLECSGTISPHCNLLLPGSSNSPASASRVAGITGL

IC50	SMILES
10 to 100 nM	Cc1c(Nc2cc[nH]c(=O)c2C(=O)Nc2ccc(N3CCN(C(=O)C(C)N(C)C)CC3)cc2)cnc2c1NCCO2 (stereo not shown) [Example 358, N-(4-(4-(dimethylalanyl)piperazin-1-yl)phenyl)-4-((8-methyl-2,3-dihydro-1H-pyrido[2,3-b][1,4]oxazin-7-yl)amino)-2-oxo-1,2-dihydropyridine-3-carboxamide]
10 to 100 nM	Cc1c(Nc2cc[nH]c(=O)c2C(=O)Nc2ccc(N3CCN4C(=O)CC[C@H]4C3)cc2)cnc2c1NCCO2 [Example 359, (S)-4-((8-methyl-2,3-dihydro-1H-pyrido[2,3-b][1,4]oxazin-7-yl)amino)-2-oxo-N-(4-(6-oxohexahydropyrrolo[1,2-a]pyrazin-2(1H)-yl)phenyl)-1,2-dihydropyridine-3-carboxamide]
10 to 100 nM	Cc1c(Nc2cc[nH]c(=O)c2C(=O)Nc2ccc(N3CCN(C)CC3)c(F)c2)cnc2c1NCC(C)O2 (stereo not shown) [Example 360, 4-((3,8-dimethyl-2,3-dihydro-1H-pyrido[2,3-b][1,4]oxazin-7-yl)amino)-N-(3-fluoro-4-(4-methylpiperazin-1-yl)phenyl)-2-oxo-1,2-dihydropyridine-3-carboxamide]
10 to 100 nM	CCN1CCN(c2ccc(NC(=O)c3c(Nc4cnc5c(c4C)NCC(C)O5)cc[nH]c3=O)cc2F)CC1 (stereo not shown) [Example 361, 4-((3,8-dimethyl-2,3-dihydro-1H-pyrido[2,3-b][1,4]oxazin-7-yl)amino)-N-(4-(4-ethylpiperazin-1-yl)-3-fluorophenyl)-2-oxo-1,2-dihydropyridine-3-carboxamide]
10 to 100 nM	CCC(=O)N1CCN(c2ccc(NC(=O)c3c(Nc4cnc5c(c4C)NCC(C)O5)cc[nH]c3=O)cc2)CC1 (stereo not shown) [Example 362, 4-((3,8-dimethyl-2,3-dihydro-1H-pyrido[2,3-b][1,4]oxazin-7-yl)amino)-2-oxo-N-(4-(4-propionylpiperazin-1-yl)phenyl)-1,2-dihydropyridine-3-carboxamide]
10 to 100 nM	Cc1ccc(N2CCN(c3ccc(NC(=O)c4c(Nc5cnc6c(c5C)NCCO6)cc[nH]c4=O)cc3)CC2)cn1 [Example 363, 4-((8-Methyl-2,3-dihydro-1H-pyrido[2,3-b][1,4]oxazin-7-yl)amino)-N-(4-(4-(6-methylpyridin-3-yl)piperazin-1-yl)phenyl)-2-oxo-1,2-dihydropyridine-3-carboxamide]
10 to 100 nM	COCc1cc(N2CCN(c3ccc(NC(=O)c4c(Nc5cnc6c(c5C)NCCO6)cc[nH]c4=O)cc3)CC2)ccn1 [Example 364, N-(4-(4-(2-(methoxymethyl)pyridin-4-yl)piperazin-1-yl)phenyl)-4-((8-methyl-2,3-dihydro-1H-pyrido[2,3-b][1,4]oxazin-7-yl)amino)-2-oxo-1,2-dihydropyridine-3-carboxamide]
10 to 100 nM	Cc1c(Nc2cc[nH]c(=O)c2C(=O)Nc2ccc(N3CCN(c4ccnc(C(=O)N(C)C)c4)CC3)cc2)cnc2c1NCCO2 [Example 365, N,N-dimethyl-4-(4-(4-(4-((8-methyl-2,3-dihydro-1H-pyrido[2,3-b][1,4]oxazin-7-yl)amino)-2-oxo-1,2-dihydropyridine-3-carboxamido)phenyl)piperazin-1-yl)picolinamide]
≤ 10 nM	Cc1c(Nc2cc[nH]c(=O)c2C(=O)Nc2ccc(N3CCN(c4nccn4C)CC3)cc2)cnc2c1NCCO2 [Example 366, N-(4-(4-(1-methyl-1H-imidazol-2-yl)piperazin-1-yl)phenyl)-4-((8-methyl-2,3-dihydro-1H-pyrido[2,3-b][1,4]oxazin-7-yl)amino)-2-oxo-1,2-dihydropyridine-3-carboxamide]
10 to 100 nM	Cc1c(Nc2cc[nH]c(=O)c2C(=O)Nc2ccc(N3CCN(c4cscn4)CC3)cc2)cnc2c1NCCO2 [Example 367, 4-((8-methyl-2,3-dihydro-1H-pyrido[2,3-b][1,4]oxazin-7-yl)amino)-2-oxo-N-(4-(4-(thiazol-4-yl)piperazin-1-yl)phenyl)-1,2-dihydropyridine-3-carboxamide]
10 to 100 nM	CCOCCN1CCN(c2ccc(NC(=O)c3c(Nc4cnc5c(c4C)NCCO5)cc[nH]c3=O)cc2)CC1 [Example 368, N-(4-(4-(2-ethoxyethyl)piperazin-1-yl)phenyl)-4-((8-methyl-2,3-dihydro-1H-pyrido[2,3-b][1,4]oxazin-7-yl)amino)-2-oxo-1,2-dihydropyridine-3-carboxamide]
10 to 100 nM	COC(C)CN1CCN(c2ccc(NC(=O)c3c(Nc4cnc5c(c4C)NCCO5)cc[nH]c3=O)cc2)CC1 (stereo not shown) [Example 369, N-(4-(4-(2-methoxypropyl)piperazin-1-yl)phenyl)-4-((8-methyl-2,3-dihydro-1H-pyrido[2,3-b][1,4]oxazin-7-yl)amino)-2-oxo-1,2-dihydropyridine-3-carboxamide]
≤ 10 nM	Cc1c(Nc2cc[nH]c(=O)c2C(=O)Nc2ccc(N3CCN(CC(C)C)CC3)cc2)cnc2c1NCCO2 [Example 370, N-(4-(4-isobutylpiperazin-1-yl)phenyl)-4-((8-methyl-2,3-dihydro-1H-pyrido[2,3-b][1,4]oxazin-7-yl)amino)-2-oxo-1,2-dihydropyridine-3-carboxamide]
10 to 100 nM	Cc1c(Nc2cc[nH]c(=O)c2C(=O)Nc2ccc(N3CCN(c4nccs4)CC3)cc2)cnc2c1NCCO2 [Example 371, 4-((8-Methyl-2,3-dihydro-1H-pyrido[2,3-b][1,4]oxazin-7-yl)amino)-2-oxo-N-(4-(4-(thiazol-2-yl)piperazin-1-yl)phenyl)-1,2-dihydropyridine-3-carboxamide]
≤ 10 nM	Cc1c(Nc2cc[nH]c(=O)c2C(=O)Nc2ccc(N3CCN(C(=O)C4CC4)CC3)cc2)cnc2c1NCC(C)O2 (stereo not shown) [Example 372, N-(4-(4-(cyclopropanecarbonyl)piperazin-1-yl)phenyl)-4-((3,8-dimethyl-2,3-dihydro-1H-pyrido[2,3-b][1,4]oxazin-7-yl)amino)-2-oxo-1,2-dihydropyridine-3-carboxamide]
10 to 100 nM	Cc1c(Nc2cc[nH]c(=O)c2C(=O)Nc2ccc(N3CCN(C(=O)C4CN(C)C4)CC3)cc2)cnc2c1NCCO2 [Example 373, 4-((8-methyl-2,3-dihydro-1H-pyrido[2,3-b][1,4]oxazin-7-yl)amino)-N-(4-(4-(1-methylazetidine-3-carbonyl)piperazin-1-yl)phenyl)-2-oxo-1,2-dihydropyridine-3-carboxamide]
10 to 100 nM	Cc1c(Nc2cc[nH]c(=O)c2C(=O)Nc2ccc(N3CCN4C(=O)CCCC4C3)cc2)cnc2c1NCCO2 (stereo not shown) [Example 374, 4-((8-methyl-2,3-dihydro-1H-pyrido[2,3-b][1,4]oxazin-7-yl)amino)-2-oxo-N-(4-(6-oxooctahydro-2H-pyrido[1,2-a]pyrazin-2-yl)phenyl)-1,2-dihydropyridine-3-carboxamide]
≤ 10 nM	Cc1c(Nc2cc[nH]c(=O)c2C(=O)Nc2ccc(N3CCC(O)(CN(C)C)CC3)cc2)cnc2c1NCCO2 [Example 375, N-(4-(4-((dimethylamino)methyl)-4-hydroxypiperidin-1-yl)phenyl)-4-((8-methyl-2,3-dihydro-1H-pyrido[2,3-b][1,4]oxazin-7-yl)amino)-2-oxo-1,2-dihydropyridine-3-carboxamide]
≤ 10 nM	Cc1c(Nc2cc[nH]c(=O)c2C(=O)Nc2ccc(N3CCN(C4CC4)CC3)c(F)c2)cnc2c1NCCO2 [Example 376, N-(4-(4-cyclopropylpiperazin-1-yl)-3-fluorophenyl)-4-((8-methyl-2,3-dihydro-1H-pyrido[2,3-b][1,4]oxazin-7-yl)amino)-2-oxo-1,2-dihydropyridine-3-carboxamide]
